Drawing on patent US20260001871A1, “TRIAZOLE DERIVATIVES AS MODULATORS OF MAS-RELATED G-PROTEIN RECEPTOR D” (ESCIENT PHARMACEUTICALS, INC., priority 2022, published 2026), this text covers IC50 for 51 compounds.

Each structure is given as a SMILES string.

Chain of human MRGPRD (Q8TDS7 whole entry): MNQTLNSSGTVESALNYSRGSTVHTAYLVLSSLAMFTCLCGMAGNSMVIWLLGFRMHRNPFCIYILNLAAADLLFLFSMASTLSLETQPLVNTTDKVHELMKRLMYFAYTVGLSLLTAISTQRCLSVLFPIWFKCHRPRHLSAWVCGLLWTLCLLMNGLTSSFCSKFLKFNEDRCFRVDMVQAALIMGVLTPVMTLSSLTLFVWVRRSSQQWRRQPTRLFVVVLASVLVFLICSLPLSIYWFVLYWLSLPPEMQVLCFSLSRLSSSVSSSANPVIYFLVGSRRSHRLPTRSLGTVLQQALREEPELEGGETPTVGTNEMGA

This test has as its target human MRGPRD (Homo sapiens, UniProt Q8TDS7). The test can be described thus: MRGPRD antagonist activity, IP-One HTRF assay in CHO cells stably expressing human MRGPRD (versus 100 μM β-Alanine agonist). It is filed as cell-based. Here is the method:
Chinese Hamster Ovary (CHO) cells stably expressing human MRGPRD (Eurofins, San Diego CA) were plated in a 384-well plate at 20,000 cells per well in 12 μL of Optimem (Fisher Scientific 11-058-021). Plates were kept in the incubator at 37° C. overnight. Antagonists were solubilized at a concentration of 10 mM in DMSO, and the agonists were solubilized to stock concentrations of either 50 mM in H2O (β-Alanine) or 10 mM in DMSO (all others) and then diluted in assay buffer (final concentrations of 5.7 mM Tris-HCl, 43 mM NaCl, 50 mM LiCl, pH=8). The concentration of DMSO was normalized across the plate. Antagonists were added to the plate using a Tecan D300 Digital Dispenser at nanoliter/picoliter volumes and 2 μL of agonists in assay buffer were added to each well for a final assay volume of 14 μL. Plates were covered and incubated for 1 h at 37° C. and then for 1 h at room temperature. IP-1 standards and HTRF detection reagents were added according to an IP-One—Gq Kit purchased from Cisbio (part number 621PAPEJ) and incubated in the dark for 1 h at room temperature. Assay plates were read on either a Molecular Devices SpectraMax iD5 plate reader or a BMG ClarioStar plate reader. The HTRF ratio was calculated form the raw data and graphed using GraphPad Prism to calculate IC50 values. Data are expressed as average IC50 values and average percent antagonism calculated as a percent of the maximum efficacy response. For these studies, the variability of the data was assessed by determining the standard error of mean (SEM).
The activity ranges are denoted as follows: “+++++” denotes antagonist activity<100 nM; “++++” denotes antagonist activity between 100 and 500 nM; “+++” denotes activity between 500 and 1000 nM; “++” denotes activity between 1000 and 3000 nM; and “+” denotes activity>3000 nM.
Background: Time-resolved FRET reads energy transfer from a long-lived donor to a nearby acceptor.
On to `CCn1nc(C)c(-c2ccc(-n3nnc(C(=O)Nc4ccncc4)c3C3CC3)cc2)c1C` [Compound 7-14], for which the IC50 (usually the point on the concentration scale where inhibition reaches its midpoint) is less than 100 nM.

Compound `Cc1cc(C#N)ccc1-c1ccc(-n2nnc(C(=O)Nc3ccncc3)c2C2CC2)cc1` [Compound 7-15] returned an IC50 of less than 100 nM.

`Cc1nn(C)c(F)c1-c1ccc(-n2nnc(C(=O)Nc3ccncc3)c2C2CC2)cc1` [Compound 7-16] registered an IC50 of less than 100 nM.

For `Cc1nn(CC(F)(F)F)c(C)c1-c1ccc(-n2nnc(C(=O)Nc3ccncc3)c2C2CC2)cc1` [Compound 7-17], the IC50 is less than 100 nM.

In turn, `Cc1nn2ccccc2c1-c1ccc(-n2nnc(C(=O)Nc3ccncc3)c2C2CC2)cc1` [Compound 7-18] gave an IC50 of less than 100 nM.

`Cc1cc(NC(=O)c2nnn(-c3ccc(-c4cnn(Cc5ccccc5)c4)cc3)c2C2CC2)ccn1` [Compound 7-19] came in with an IC50 of less than 100 nM.

For `O=C(Nc1ccncc1)c1nnn(-c2ccc(-c3cnn(Cc4ccccc4)c3)cc2)c1C1CC1` [Compound 7-20], the IC50 is less than 100 nM.

Regarding `Cc1cc(NC(=O)c2nnn(-c3ccc(-c4ccccc4)cc3F)c2C2CC2)ccn1` [Compound 7-21], the IC50 lay in the range of 100 to 500 nM.

Regarding `N#Cc1ccc(-c2ccc(-n3nnc(C(=O)Nc4ccncc4)c3C3CC3)cc2)cc1F` [Compound 7-22], the IC50 was in the range of 100 to 500 nM.

As to `N#CCc1ccc(-c2ccc(-n3nnc(C(=O)Nc4ccncc4)c3C3CC3)cc2)cc1` [Compound 7-23], the IC50 fell in the range of 100 to 500 nM.

Consider `COc1cc(C#N)ccc1-c1ccc(-n2nnc(C(=O)Nc3ccncc3)c2C2CC2)cc1` [Compound 7-24], for which the IC50 is 100 to 500 nM.

As to `O=C(Nc1ccncc1)c1nnn(-c2ccc(-c3cnn4c3CCC4)cc2)c1C1CC1` [Compound 7-25], the IC50 was in the range of 100 to 500 nM.

Turning to `Cc1c(-c2ccc(-n3nnc(C(=O)Nc4ccncc4)c3C3CC3)cc2)cnn1-c1ccccc1` [Compound 7-26], the IC50 was in the range of 100 to 500 nM.

Take `COc1ccc(-c2ccc(-n3nnc(C(=O)Nc4ccncc4)c3C3CC3)cc2)cc1` [Compound 7-27]: the IC50 fell in the range of 100 to 500 nM.

Turning to `O=C(Nc1ccncc1)c1nnn(-c2ccc(-c3ccc(C(F)F)cc3)cc2)c1C1CC1` [Compound 7-28], the IC50 lay in the range of 100 to 500 nM.

`O=C(Nc1ccncc1)c1nnn(-c2ccc(-c3cnn(Cc4cccs4)c3)cc2)c1C1CC1` [Compound 7-29] showed an IC50 of 100 to 500 nM.

`N#CCc1cccc(-c2ccc(-n3nnc(C(=O)Nc4ccncc4)c3C3CC3)cc2)c1` [Compound 7-30] gave an IC50 of 100 to 500 nM.

`Cc1nn2cccnc2c1-c1ccc(-n2nnc(C(=O)Nc3ccncc3)c2C2CC2)cc1` [Compound 7-31]: the IC50 lay within 100 to 500 nM.

Compound `O=C(Nc1ccncc1)c1nnn(-c2ccc(-c3ccoc3)cc2)c1C1CC1` [Compound 7-32] returned an IC50 of 100 to 500 nM.

Regarding `Cc1nn(C)c(C)c1-c1ccc(-n2nnc(C(=O)Nc3ccncc3)c2C2CC2)cc1` [Compound 7-33], the IC50 is 100 to 500 nM.

In the case of `COc1ccc(-c2ccc(-n3nnc(C(=O)Nc4ccncc4)c3C3CC3)cc2)c(C)c1` [Compound 7-34], the IC50 fell in the range of 100 to 500 nM.

Take `COc1ccc(-c2ccc(-n3nnc(C(=O)Nc4ccncc4)c3C3CC3)cc2)c(F)c1` [Compound 7-35]: the IC50 lay in the range of 100 to 500 nM.

`CN(C)c1cccc(-c2ccc(-n3nnc(C(=O)Nc4ccncc4)c3C3CC3)cc2)c1` [Compound 7-36] yielded an IC50 of 100 to 500 nM.

`CC(C)c1cccc(-c2ccc(-n3nnc(C(=O)Nc4ccncc4)c3C3CC3)cc2)c1` [Compound 7-37] registered an IC50 of 100 to 500 nM.

Compound `Cc1cc(NC(=O)c2nnn(-c3ccc(-c4ccc(C#N)nc4)cc3)c2C2CC2)ccn1` [Compound 7-38] displayed an IC50 of 100 to 500 nM.

As to `N#Cc1ccc(-c2ccc(-n3nnc(C(=O)Nc4ccncc4)c3C3CC3)cc2)cc1` [Compound 7-39], the IC50 fell in the range of 100 to 500 nM.

The compound `Cc1noc(C)c1-c1ccc(-n2nnc(C(=O)Nc3ccncc3)c2C2CC2)cc1` [Compound 7-40] displayed an IC50 of 100 to 500 nM.

Compound `O=C(Nc1ccncc1)c1nnn(-c2ccc(-c3cc[nH]n3)cc2)c1C1CC1` [Compound 7-41] yielded an IC50 of 100 to 500 nM.

In turn, `CC(=O)c1ccc(-c2ccc(-n3nnc(C(=O)Nc4ccncc4)c3C3CC3)cc2)c(C)c1` [Compound 7-42] returned an IC50 of 100 to 500 nM.

The compound `CN(C)S(=O)(=O)n1ccc(-c2ccc(-n3nnc(C(=O)Nc4ccncc4)c3C3CC3)cc2)n1` [Compound 7-43] showed an IC50 of 100 to 500 nM.

Compound `Cc1ccc(-c2ccc(-n3nnc(C(=O)Nc4ccncc4)c3C3CC3)cc2)cc1` [Compound 7-44] came in with an IC50 of 100 to 500 nM.

Consider `Cc1oncc1-c1ccc(-n2nnc(C(=O)Nc3ccncc3)c2C2CC2)cc1` [Compound 7-45], for which the IC50 was in the range of 100 to 500 nM.

Compound `COCc1ccc(-c2ccc(-n3nnc(C(=O)Nc4ccncc4)c3C3CC3)cc2)cc1` [Compound 7-46] returned an IC50 of 100 to 500 nM.

With `Cc1c(-c2ccc(-n3nnc(C(=O)Nc4ccncc4)c3C3CC3)cc2)c(C(F)(F)F)nn1C` [Compound 7-47], the IC50 was 100 to 500 nM.

Consider `COc1cc(C#N)ccc1-c1ccc(-n2nnc(C(=O)NCc3ccc(C)nc3)c2C2CC2)cc1` [Compound 7-48], for which the IC50 is 100 to 500 nM.

Turning to `CC(=O)c1ccc(-c2ccc(-n3nnc(C(=O)Nc4ccncc4)c3C3CC3)cc2)cc1` [Compound 7-49], the IC50 lay in the range of 100 to 500 nM.

`Cc1c(-c2ccc(-n3nnc(C(=O)Nc4ccncc4)c3C3CC3)cc2)cnn1C` [Compound 7-50] showed an IC50 of 100 to 500 nM.

As for `Cc1cc(NC(=O)c2nnn(-c3ccc(-c4ccc(C#N)cc4C)cc3)c2C2CC2)ccn1` [Compound 7-52], the IC50 fell in the range of 100 to 500 nM.

For the compound `Cc1cc(NC(=O)c2nnn(-c3ccc(-c4ccc(C#N)cc4)cc3OC(F)(F)F)c2C2CC2)ccn1` [Compound 7-53], the IC50 lay in the range of 100 to 500 nM.

The compound `N#Cc1ccc(-c2ccc(-n3nnc(C(=O)Nc4ccncc4)c3C3CC3)cc2)c(F)c1` [Compound 7-54] displayed an IC50 of 100 to 500 nM.

`Cn1ccc(-c2ccc(-n3nnc(C(=O)Nc4ccncc4)c3C3CC3)cc2)c1` [Compound 7-55]: the IC50 lay in the range of 100 to 500 nM.

`O=C(Nc1ccncc1)c1nnn(-c2ccc(-c3cccc(C4CC4)c3)cc2)c1C1CC1` [Compound 7-56] had an IC50 of 100 to 500 nM.

Consider `Cc1nocc1-c1ccc(-n2nnc(C(=O)Nc3ccncc3)c2C2CC2)cc1` [Compound 7-57], for which the IC50 was in the range of 100 to 500 nM.

For the compound `O=C(Nc1ccncc1)c1nnn(-c2ccc(-c3ccc(O)cc3)cc2)c1C1CC1` [Compound 7-58], the IC50 fell in the range of 100 to 500 nM.

Regarding `O=C(Nc1ccncc1)c1nnn(-c2ccc(-c3ccc(CC(F)(F)F)cc3)cc2)c1C1CC1` [Compound 7-59], the IC50 lay within 100 to 500 nM.

In turn, `Cc1cc(-c2ccc(-n3nnc(C(=O)Nc4ccncc4)c3C3CC3)cc2)ccc1C#N` [Compound 7-60] returned an IC50 of 100 to 500 nM.

`Cc1cc(NC(=O)c2nnn(-c3ccc(-c4ccc(C#N)cc4)cc3)c2C2CC2)ccn1` [Compound 7-61] yielded an IC50 of 100 to 500 nM.

In turn, `O=C(Nc1ccncc1)c1nnn(-c2ccc(-c3cnn(C4CCC4)c3)cc2)c1C1CC1` [Compound 7-62] displayed a concentration for half-maximal inhibition (IC50) of 100 to 500 nM.

In the case of `O=C(Nc1ccncc1)c1nnn(-c2ccc(-c3cnn(C4CCCC4)c3)cc2)c1C1CC1` [Compound 7-63], the IC50 was 100 to 500 nM.

Compound `O=C(Nc1ccncc1)c1nnn(-c2ccc(-c3ccc4c(c3)CCC4)cc2)c1C1CC1` [Compound 7-64] registered an IC50 of 100 to 500 nM.

For `O=C(Nc1ccncc1)c1nnn(-c2ccc(-c3ccc(F)cc3)cc2)c1C1CC1` [Compound 7-65], the IC50 fell in the range of 100 to 500 nM.
